Results published in patent US9592223B2, “Small molecule inhibitors of MALT1” (Cornell University, priority 2012, dated 2017).

Key:
[1] = test system: cleavage of A20, BCL10 and RELB; experiment: Cleavage of MALT1 substrates with MG-132 in HBL-1 and TMD8 cell lines, Western blot; type: cell-based, human; conditions: 2 μM for 30 minutes, then 5 μM MG-132 for one or two hour
Description: As these proteins are directed to proteasomal degradation after cleavage (Coornaert et al., 2008; Hailfinger et al., 2011; Rebeaud et al., 2008), we used the proteasome inhibitor MG-132 to facilitate visualization of cleavage products (FIG. 4A).
Equal amounts of total protein (20-75 μg) were separated on sodium dodecyl sulfate-polyacrylamide gel electrophoresis (SDS-PAGE), and electrotransferred onto nitrocellulose membranes. Membranes were incubated with primary antibodies (MALT1, BCL-10, CYLD from Santa Cruz Biotechnologies, Santa Cruz, Calif.; A20 from eBioscience, San Diego, Calif.; phospho-IκB-α, IκB-α, c-REL, RELB from Cell Signaling, Danvers, Mass. and α-Tubulin from Sigma), followed by secondary antibodies conjugated to horseradish peroxidase, which were detected by chemiluminescence (Pierce, Thermo Scientific, Rockford, Ill.).

cell cycle = experiment: BrdU incorporation - DAPI staining cell cycle flow cytometry; type: cell-based; conditions: increasing concentrations
Description: (§1) Cell proliferation was examined using the CFSE dilution assay by flow cytometry on viable cells at 48, 72 and 96 h. […] Trypan blue exclusion and apoptosis assessed by Annexin V^+ DAPI^− flow cytometry was measured every 48 hr for a period of 14 days.
To determine cell-cycle distribution, cells were analyzed by flow cytometry using pulse-BrdU (bromodeoxyuridine) incorporation with the APC BrdU Flow Kit (BD Pharmingen, San Jose, Calif.).

HBL-1, TMD8 and OCI-Ly10 = experiment: CFSE dilution assay by flow cytometry, ABC-DLBCL lines; type: cell-based, human; conditions: viable cells at 48, 72 and 96 h
Description: as §1
CFSE covalently labels long-lived intracellular molecules with carboxyfluorescein. Following each cell division, fluorescent molecules dilute in daughter cells, allowing comparative study of the kinetics of cell division. Cells were stained with DAPI (Sigma), followed by flow cytometry. DAPI^neg cells were gated for analysis.

Caspase-8 = Caspase-8 (Homo sapiens, UniProt Q14790); experiment: Caspase selectivity; type: biochemical
Caspase-8, sequence (Q14790 217-374 limits assumed): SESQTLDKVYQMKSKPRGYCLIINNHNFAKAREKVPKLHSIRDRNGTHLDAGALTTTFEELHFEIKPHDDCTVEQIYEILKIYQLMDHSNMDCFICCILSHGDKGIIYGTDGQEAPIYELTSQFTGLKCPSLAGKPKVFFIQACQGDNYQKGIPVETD
Caspase-8, sequence (Q14790 385-479 limits assumed): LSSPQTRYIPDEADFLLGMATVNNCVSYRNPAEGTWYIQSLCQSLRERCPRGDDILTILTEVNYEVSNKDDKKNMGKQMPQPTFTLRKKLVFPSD

[2] = test system: ABC-DLBCL MALT1 independent cell lines U2932 and HLY-1; experiment: Growth inhibition, MALT1 independent ABC-DLBCL cell lines; type: cell-based, human; conditions: increasing concentrations, single dose, 48 hr
Description: Endogenous MALT1 activity was evaluated by Western blotting for A20, BCL10 and CYLD; and NF-κB activation, by phospho-IκB-α and total IκB-α. Dependence on MALT1 proteolytic activity for proliferation was tested by 50[…]μM Z-VRPR-FMK treatment for 48 hr. […] The U2932 and HLY1 ABC-DLBCL cell lines harbor mutations in TAK1 and A20, which activate NF-κB signaling downstream of MALT1.
Cell proliferation was determined by ATP quantification using a luminescent method (CellTiter-Glo, Promega, Madison, Wis.) and Trypan blue dye-exclusion (Sigma, St. Louis, Mo.). Cell viability in drug-treated cells was normalized to their respective controls (fractional viability) and results are given as 1-fractional viability. […]
DLBCL cell lines were grown in exponential growth conditions during the 48 hr of treatment. Cell proliferation was determined by ATP quantification using a luminescent method (CellTiter-Glo, Promega, Madison, Wis.) and Trypan blue dye-exclusion (Sigma, St. Louis, Mo.). Luminescence was measured using the Synergy4 microplate reader (BioTek Instruments, Winooski, Vt.). Standard curves for each cell line were calculated by plotting the cell number (determined by the Trypan blue method) against their luminescence values and number of cells was calculated accordingly. […]

c-REL = c-REL flow cytometry of whole cells or isolated nuclei, HBL-1 cells; type: cell-based, human; conditions: 200 nM MI-2 or 50 μM Z-VRPR-FMK, 24 hr
Description: MALT1 mediates c-REL translocation to the nucleus following BCR stimulation (Ferch et al., 2007). […] This selectivity towards c-REL had also been previously shown in MALT1 knockout mice and after MALT1 cleavage inhibition by the MALT1 blocking peptide Z-VRPR-FMK (Ferch et al., 2009; Ferch et al., 2007; Hailfinger et al., 2011).
[…] was studied by flow cytometry. Cells were treated as indicated and total cells or isolated nuclei were prepared and stained for c-REL. Total cells were fixed and permeabilized using the Intrastain kit from Dako (Glostrup, Denmark). For nuclei extraction, cells were resuspended in cold nuclei extraction buffer (320 mM sucrose, 5 mM MgCl2, 10 mM HEPES, 1% Triton X-100 at pH 7.4), incubated for 10 min on ice and washed twice with nuclei wash buffer (320 mM sucrose, 5 mM MgCl2, 10 mM HEPES at pH 7.4, no Triton X-100). Nuclei yield and integrity were confirmed by microscopic examination with trypan blue staining. For labeling, nuclei wash buffer was supplemented with 1% BSA, 0.1% sodium azide and 1:100 c-REL antibody (Cell Signaling). Cells were washed then incubated with Alexa Fluor-488 conjugated secondary antibodies from Invitrogen. Cells were washed again and stained with DAPI followed by flow cytometry.

[3] = test system: ABC-DLBCL cell lines (HBL1 and TMD8); experiment: Caspase-3/7 cleavage assay for apoptosis; type: cell-based, human

**Q.** `COCCOc1nc(-c2ccc(Cl)c(Cl)c2)n(-c2ccc(NC(=O)CCl)cc2)n1` [MI-2] was tested. Which “cleaved forms of A20, BCL10 and RELB” value [1] did it give?
**A.** Its value is “diminished the abundance of cleaved forms and/or increased the abundance of full-length proteins”.

**Q.** What about the cell cycle distribution (cell cycle) of the same molecule?
**A.** The cell cycle distribution was “dose-dependent decrease in S phase”.

**Q.** What about the “cell proliferation (CFSE dilution)” value (HBL-1, TMD8 and OCI-Ly10) of the same molecule?
**A.** The value was “substantially inhibited proliferation”.

**Q.** What about the “activity against Caspase-8” value (Caspase-8) of the same molecule?
**A.** The value was “little activity”.

**Q.** And the growth inhibition [2]?
**A.** Its growth inhibition is “resistant”.

**Q.** And the “nuclear c-REL” value (c-REL; isolated nuclei)?
**A.** Its value is “reduced nuclear c-REL”.

**Q.** What about the “whole cell c-REL” value (c-REL; whole cells) of the same molecule?
**A.** The value was “without affecting whole cell levels”.

**Q.** And the “apoptosis (Caspase-3/7 cleavage)” value [3]?
**A.** Its value is “dose dependent apoptosis within 48 hr”.
